Assay results: article PMC7481482, “Development of Anthraquinone Derivatives as Ectonucleoside Triphosphate Diphosphohydrolase (NTPDase) Inhibitors With Selectivity for NTPDase2 and NTPDase3” (Frontiers in Pharmacology, 2020)

Columns and labels:
human NTPDase1 = biological target: T1, human NTPDase1 (Homo sapiens, UniProt P49961); assay: Malachite green assay, human NTPDase1; format: biochemical; conditions: 2 μM compound; 50 µM ATP; COS-7 membrane preparation; read-out: % inhibition at 2 μM concentration, NTPDase1
T1 construct: expressed in transfected cells; host or cells: COS-7 cells (membrane preparation)
T1 sequence (P49961 1-510): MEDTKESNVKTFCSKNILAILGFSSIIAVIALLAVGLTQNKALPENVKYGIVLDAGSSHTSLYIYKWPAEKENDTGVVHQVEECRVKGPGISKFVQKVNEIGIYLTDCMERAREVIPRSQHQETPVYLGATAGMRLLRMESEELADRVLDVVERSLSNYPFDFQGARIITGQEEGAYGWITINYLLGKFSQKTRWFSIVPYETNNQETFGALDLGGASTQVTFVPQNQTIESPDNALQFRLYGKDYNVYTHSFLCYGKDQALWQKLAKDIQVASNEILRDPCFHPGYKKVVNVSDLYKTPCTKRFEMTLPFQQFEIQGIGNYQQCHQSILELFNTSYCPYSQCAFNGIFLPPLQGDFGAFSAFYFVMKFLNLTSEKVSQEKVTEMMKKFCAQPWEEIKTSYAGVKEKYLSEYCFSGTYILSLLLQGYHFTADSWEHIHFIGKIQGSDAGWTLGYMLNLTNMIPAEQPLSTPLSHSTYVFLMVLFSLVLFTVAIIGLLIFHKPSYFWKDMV
How it was run: (§1)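 COS-7 membranes expressing each NTPDase were preincubated with compound for 5 min at 37 °C, pH 7.4 HEPES buffer with 2 mM CaCl2/1 mM MgCl2. ATP was 50 µM for NTPDase1 and 100 µM for -2, -3, -8; reaction ran 15 min at 37 °C. Released phosphate read by malachite green at 600 nm; screen at 2 µM, IC50 over 0.03–30 µM in 2% DMSO.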

rat NTPDase2 = conditions: rat enzyme; ref Baqi et al., 2009b; cited from earlier work
rat NTPDase3 = conditions: rat enzyme; ref Baqi et al., 2009b; cited from earlier work
human NTPDase8 = biological target: T2, human NTPDase8 (Homo sapiens, UniProt Q5MY95); assay: Malachite green assay, human NTPDase8; format: biochemical; conditions: 2 μM compound; 100 µM ATP; COS-7 membrane preparation; read-out: % inhibition at 2 μM concentration, NTPDase8
T2 construct: expressed in transfected cells; host or cells: COS-7 cells (membrane preparation)
T2 sequence (Q5MY95 1-495): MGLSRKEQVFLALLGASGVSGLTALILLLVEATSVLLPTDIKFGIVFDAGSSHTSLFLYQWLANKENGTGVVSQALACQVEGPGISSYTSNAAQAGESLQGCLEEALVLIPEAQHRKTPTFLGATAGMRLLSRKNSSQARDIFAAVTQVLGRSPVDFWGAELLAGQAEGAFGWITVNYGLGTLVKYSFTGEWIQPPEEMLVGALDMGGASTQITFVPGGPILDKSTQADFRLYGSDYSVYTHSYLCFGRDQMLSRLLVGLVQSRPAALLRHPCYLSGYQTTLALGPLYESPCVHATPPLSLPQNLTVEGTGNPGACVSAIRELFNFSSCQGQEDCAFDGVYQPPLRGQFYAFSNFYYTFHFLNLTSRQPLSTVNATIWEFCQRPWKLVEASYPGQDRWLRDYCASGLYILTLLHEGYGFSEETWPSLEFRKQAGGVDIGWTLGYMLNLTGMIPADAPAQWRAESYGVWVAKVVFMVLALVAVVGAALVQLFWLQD
How it was run: as §1

rat NTPDase1 = conditions: rat enzyme; ref Baqi et al., 2009b; cited from earlier work

- inhibition at 2 µM (human NTPDase1): -19%
- inhibition at 2 µM (human NTPDase8): 9%
Compound: Nc1c(S(=O)(=O)O)cc(Nc2cccc3ccccc23)c2c1C(=O)c1ccccc1C2=O [Compound 15]
- IC50 (rat NTPDase2): > 100 µM
- IC50 (rat NTPDase3): 1.5 µM
- IC50 (rat NTPDase1): > 100 µM
